The source of these data is paper PMC7584369, “Di-bromo-Based Small-Molecule Inhibitors of the PD-1/PD-L1 Immune Checkpoint” (Journal of Medicinal Chemistry, 2020).

Each structure is given as a SMILES string. “And” between values parts separate entries of the source, which are not always exact repeats. Equal entries are not always repeated. “Also recorded” adds a separate entry of the source.

The target of data set [1] is T1, human PD-L1 (Homo sapiens, UniProt Q9NZQ7).
T1 construct: hPD-L1 residues, 18–134, C-terminal His-tag; His-tag (C); made in house; host or cells: Escherichia coli BL21 (DE3)
The data set can be described thus: 1H NMR binding assay. To be noted: molar ratio 1:1. How it is done:
The direct binding of the most prominent compounds 2k and 3d to the human PD-L1 was also confirmed with a ^1H NMR method (Figure S3).
Figure S2 ELISA assay results.
High-binding 96 well plates (Thermo Scientific, cat. 439454) were coated with 1.2 μg/ml (50 μL/well) of Fc-tagged human PD-1 (Recepton Sp. z o.o., cat. R1-001-1) and incubated overnight at 4 ◦C. The plates were warmed to room temperature, washed with wash buffer (1 x PBS, 0.05% Tween 20, pH 7.4) and blocked with 1 % BSA in 1 x PBS, pH 7.4 for 2 h. Standard curve was generated with 0.02 – 50 ug/mL His- and Fc- tagged human PD-L1 (Recepton Sp. z o.o., cat. R1-002-1). […] The bound ligand was detected with the addition of 50 μL/well biotinylated Anty-His antibody (Southern Biotech, cat. 4603-08) followed by 1 h incubation, wash steps and addition of 50 μL/well streptavidin-HRP (Thermo Scientific, cat. 21126). […] The absorbance readings were made on Tecan Spark at the wavelength 450 nm and the reference wavelength 655 nm. IC50 was calculated based on the Δ((A450-A655) from sample – (A450-A655) from background) readings fitted in the plot using a Hill’s […]
For NMR measurements, the buffer was exchanged by gel filtration to PBS pH 7.4. […] All spectra were recorded at 300 K using a Bruker Avance III 600 MHz spectrometer. […]

The target in data set [2] is T2, hPD-1/hPD-L1 immune checkpoint (hPD-L1 aAPCs and Jurkat hPD-1 effector cells) (Homo sapiens, UniProt Q9NZQ7).
T2 construct: host or cells: CHO K-1 (hPD-L1 aAPCs) and Jurkat T cells (hPD-1 effector cells)
The data set can be described thus: hPD-1/hPD-L1 immune checkpoint blockade cell-based assay (Promega Blockade Bioassay). To be noted: at a 50 μM concentration.

The target of data set [3] is T1, human PD-L1. The data set can be described thus: MicroScale Thermophoresis (MST) binding assay, human PD-L1. To be noted: hPD-L1. In general terms: Microscale thermophoresis detects binding through changes in fluorescence in a small temperature gradient.
The target in data set [4] is T3, human PD-1/PD-L1 complex (Homo sapiens, UniProt Q9NZQ7).
T3 construct: Fc; purchased Recepton Sp. z o.o; R1-002-1 (PD-L1); R1-001-1 (PD-1)
Kind of data set: Competitive ELISA. To be noted: dissociation of human PD-1/PD-L1 complex. Format: binding.

Data set [5] has as its system Jurkat PD-1 Effector Cells alone or in co-culture with CHO K-1 PD-L1 aAPCs. Kind of data set: Cytotoxicity / cell viability assay (tetrazolium reagent). To be noted: not toxic up to the stated final concentration. In kind it is cell-based.
Data set [6] has as its target T4, wtPD-1/PD-L1 complex (Homo sapiens, UniProt Q9NZQ7).
T4 construct: hPD-L1 residues, 18–134, C-terminal His-tag; His-tag (C); made in house; host or cells: Escherichia coli BL21 (DE3)
Kind of data set: AIDA-NMR with wild-type proteins. In kind it is binding. To be noted: wild-type PD-1.

Data set [7] has as its target T5, murine PD-L1 (Mus musculus, UniProt Q9EP73).
T5 construct: mPD-L1 residues, 19–134; made in house; host or cells: Escherichia coli BL21 (DE3)
Kind of data set: MicroScale Thermophoresis (MST) binding assay, murine PD-L1. To be noted: mPD-L1.

Data set [8] concerns primary human T cells. The data set can be described thus: Flow cytometry of activation markers on primary T cells (PBMCs on hPD-L1 aAPCs). Format: cell-based. To be noted: 48 h. The procedure: The biological activity of the compound 2k was further verified on the primary T cells. For this, peripheral blood mononuclear cells (PBMCs) isolated from the blood of healthy donors were contacted with hPD-L1 aAPCs to provide TCR-mediated activation of T cells and the engagement of PD-1/PD-L1 immune checkpoint. The cells were then analyzed with flow cytometry following the gating for CD4^+ and CD8^+ T cells. The blockade of the PD-1/PD-L1 immune checkpoint was expected to increase the activation of T cells. In the experiment, atezolizumab and compound 2k were used. […] Because the prolonged activation of T cells leads to the increase of the expression of immune checkpoint molecules,[30] we have monitored the expression of PD-1 protein itself as an indicator of the late T cell activation and exhaustion. […] This confirms the bioactivity of the compound 2k in the context of primary T cells.
Blood samples from healthy donors were purchased from the Regional Center of Blood Donation and Blood Therapy in Krakow. PBMCs were isolated by a density gradient centrifugation using Pancoll human separating solutions (PAN-Biotech) and then resuspended in RPMI 1640 medium (Biowest) containing 10% FBS (Biowest).
PBMCs were added to the preseeded aAPCs at the density of 400 000 cells/well and incubated in the presence of compound 2k, DMSO, and with or without atezolizumab (5 μg/mL) as an anti-PD-L1 monoclonal antibody. After 48 h, cells were detached using TrypLe Select Enzyme (Thermo Fisher Scientific), collected into 5 mL round-bottom tubes, and washed with flow cytometry staining buffer (Thermo Fisher Scientific). For flow cytometry analysis, cells were stained using monoclonal antibodies: anti-CD69-APC, anti-CD4-FITC, anti-CD8-BV510, and anti-PD1-PECy7 (Becton Dickinson, BD). Following 20 min of incubation at room temperature, cells were washed, resuspended in PBS, and analyzed using a FACSCanto II flow cytometer (BD) and FACSDiva software (BD). The data analysis was carried out with FACSuite software (BD).

The test system of data set [9] is PD-L1. To be noted: several independent biophysical and cell-based assays; cited from earlier work.

T1 sequence (Q9NZQ7 18-134): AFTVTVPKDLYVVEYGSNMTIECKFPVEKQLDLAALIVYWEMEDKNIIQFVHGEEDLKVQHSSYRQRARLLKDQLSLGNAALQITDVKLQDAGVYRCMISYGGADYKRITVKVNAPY
T2 sequence (Q9NZQ7 19-290): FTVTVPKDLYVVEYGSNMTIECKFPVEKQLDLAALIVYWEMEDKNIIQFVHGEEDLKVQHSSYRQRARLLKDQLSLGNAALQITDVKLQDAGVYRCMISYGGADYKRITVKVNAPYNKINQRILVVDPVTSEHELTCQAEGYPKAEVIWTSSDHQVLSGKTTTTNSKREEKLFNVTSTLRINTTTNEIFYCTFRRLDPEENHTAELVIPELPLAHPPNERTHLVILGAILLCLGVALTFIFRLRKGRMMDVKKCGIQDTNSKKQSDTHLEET
T3 sequence (Q9NZQ7 19-238 limits assumed, one chain of several): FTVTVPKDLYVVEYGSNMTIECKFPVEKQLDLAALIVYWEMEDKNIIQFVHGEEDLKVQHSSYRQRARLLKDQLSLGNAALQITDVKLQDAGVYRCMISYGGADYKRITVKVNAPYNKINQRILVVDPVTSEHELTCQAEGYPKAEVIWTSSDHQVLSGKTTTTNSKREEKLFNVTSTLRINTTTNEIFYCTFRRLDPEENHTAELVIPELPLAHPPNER
T4 sequence (Q9NZQ7 18-134, one chain of several): as the sequence (Q9NZQ7 18-134) above
T5 sequence (Q9EP73 19-134): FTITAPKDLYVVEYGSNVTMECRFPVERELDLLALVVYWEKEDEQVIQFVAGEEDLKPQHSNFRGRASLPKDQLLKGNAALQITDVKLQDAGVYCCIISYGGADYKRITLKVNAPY

One may read the Kd as the free concentration of one partner at which half of the binding sites on the other are occupied at equilibrium, for simple one-to-one binding. As a reminder, the IC50 is the concentration that gives 50% inhibition. Read a high IC50 as lower potency. Consider `O=C(O)[C@@H]1CCCCN1Cc1ccc(OCc2cccc(-c3ccccc3)c2Br)c(Br)c1` [2k, (S)-1-(3-Bromo-4-((2-bromo-[1,1′-biphenyl]-3-yl)methoxy)benzyl)piperidine-2-carboxylic Acid], for which, in data set [1], the “direct binding to hPD-L1 (1H NMR)” value was “caused flattening of 2D spectra characteristic for the dimerization; also recorded: caused a characteristic dimerization of hPD-L1”. Besides, the “level of the Jurkat T cell activation” value in data set [2] is 2.1 fold. Further, the Kd in [3] was 4.04 nM and 4 nM. This molecule also came in with an IC50 in data set [4] of 1.47 ± 0.05 nM. The “toxic concentration in cell viability assay” value in data set [5] is over 100 µM. Moreover, the “dissociation of the wtPD-1/PD-L1 complex” value in [6] is “dissociated”. Also, the “MST KD” value in [7] is listed as “no activity”. Besides, in data set [8], the “expression of PD-1 receptor on the surface of CD4+ and CD8+ T cells” value is “significant increase”; the “expression of early T-cell activation marker CD69” value is recorded as “Neither of the two molecules was able to increase”.

Turning to `C[C@@H](O)[C@H](NC(=O)N[C@@H](CC(N)=O)c1nc([C@@H](N)CO)no1)C(=O)O` [CA-170], the “direct binding to PD-L1” value in data set [9] is “not a direct PD-L1-binder”.
